Data on eight compounds can be found in PubChem BioAssay AID1259407 (Chemical Carcinogenesis Research Information System (CCRIS), 2018).

The source made the active and inactive calls. The rule behind the calls is not given here.

For the data set, the system named is CCRIS mutagenicity, Ames/micronucleus/aberration tests. Nature of the data set: CCRIS mutagenicity studies.
The mark [1] stands for this setting: Test System: AMES SALMONELLA TYPHIMURIUM, Strain/Indicator: TA98, Metabolic Activation: NONE, Method: STANDARD PLATE.
The mark [2] stands for this setting: Test System: AMES SALMONELLA TYPHIMURIUM, Strain/Indicator: TA100, Metabolic Activation: NONE, Method: STANDARD PLATE.

For `C1CSCCO1`, the mutagenic call runs as follows: under setting [1], “inactive; negative”; (Test System: AMES SALMONELLA TYPHIMURIUM, Strain/Indicator: TA98, Metabolic Activation: S-9, Method: STANDARD PLATE) “inactive; negative”; under setting [2], “inactive; negative”; (Test System: AMES SALMONELLA TYPHIMURIUM, Strain/Indicator: TA100, Metabolic Activation: S-9, Method: STANDARD PLATE) “inactive; negative”; (Test System: AMES SALMONELLA TYPHIMURIUM, Strain/Indicator: TA1535, Metabolic Activation: NONE, Method: STANDARD PLATE) “inactive; negative”; (Test System: AMES SALMONELLA TYPHIMURIUM, Strain/Indicator: TA1535, Metabolic Activation: S-9, Method: STANDARD PLATE) “inactive; negative”. In addition, the mutagenic call was “inactive; negative” (Test System: AMES SALMONELLA TYPHIMURIUM, Strain/Indicator: TA1537, Metabolic Activation: NONE, Method: STANDARD PLATE); “inactive; negative” (Test System: AMES SALMONELLA TYPHIMURIUM, Strain/Indicator: TA1537, Metabolic Activation: S-9, Method: STANDARD PLATE); “inactive; negative” (Test System: AMES SALMONELLA TYPHIMURIUM, Strain/Indicator: TA1538, Metabolic Activation: NONE, Method: STANDARD PLATE); “inactive; negative” (Test System: AMES SALMONELLA TYPHIMURIUM, Strain/Indicator: TA1538, Metabolic Activation: S-9, Method: STANDARD PLATE).

Regarding `O=[N+]([O-])c1ccc(/C=N/n2cccn2)o1`, the mutagenic call is, setting by setting: (Test System: AMES SALMONELLA TYPHIMURIUM, Strain/Indicator: TA97, Metabolic Activation: NONE, Method: STANDARD PLATE) “active; positive”; under setting [1], “active; positive”; under setting [2], “active; positive”; (Test System: AMES SALMONELLA TYPHIMURIUM, Strain/Indicator: TA102, Metabolic Activation: NONE, Method: STANDARD PLATE) “active; positive”.

With `Cn1c(N=[N+]=[N-])nc2ccc3ncccc3c21`, the mutagenic call was “active; positive” (Test System: AMES SALMONELLA TYPHIMURIUM, Strain/Indicator: TA98(1,8-DNP6), Metabolic Activation: NONE, Method: STANDARD PLATE) and “active; positive” under setting [1].

As to `CCOP(=O)(OCC)SCCSCC` (tested in a mixture with another compound), the mutagenic call (Test System: E. COLI, Strain/Indicator: WP2 UVRA, Metabolic Activation: NONE, Method: STANDARD PLATE) is “active; positive”; the mutagenic call (Test System: E. COLI, Strain/Indicator: WP2 UVRA, Metabolic Activation: RAT, LIVER, S-9, AROCLOR 1254, Method: STANDARD PLATE) was “active; positive”; the mutagenic call (Test System: UDS HUMAN FIBROBLASTS, Strain/Indicator: THY INCORP (NON-S-PHASE), Metabolic Activation: NONE, Method: LIQUID SCINTILLATION COUNTING) is “active; positive”.

Turning to `C1=Cc2cc3cccc4c5ccccc5c5ccc1c2c5c34`, the mutagenic call was “active; positive” (Test System: AMES SALMONELLA TYPHIMURIUM, Strain/Indicator: TA98, Metabolic Activation: RAT, LIVER, S-9, AROCLOR 1254 (0.14 OR 0.41 MG), Method: STANDARD PLATE); “active; positive” (Test System: AMES SALMONELLA TYPHIMURIUM, Strain/Indicator: TA100, Metabolic Activation: RAT, LIVER, S-9, AROCLOR 1254 (0.14 OR 0.41 MG), Method: STANDARD PLATE); “active; positive” (Test System: AMES SALMONELLA TYPHIMURIUM, Strain/Indicator: TA104, Metabolic Activation: RAT, LIVER, S-9, AROCLOR 1254 (0.14 OR 0.41 MG), Method: STANDARD PLATE); “inactive; negative” (Test System: AMES SALMONELLA TYPHIMURIUM, Strain/Indicator: TA1535, Metabolic Activation: RAT, LIVER, S-9, AROCLOR 1254 (0.14 OR 0.41 MG), Method: STANDARD PLATE); “active; positive” (Test System: AMES SALMONELLA TYPHIMURIUM, Strain/Indicator: TA1537, Metabolic Activation: RAT, LIVER, S-9, AROCLOR 1254 (0.14 OR 0.41 MG), Method: STANDARD PLATE); “active; positive” (Test System: AMES SALMONELLA TYPHIMURIUM, Strain/Indicator: TA1538, Metabolic Activation: RAT, LIVER, S-9, AROCLOR 1254 (0.14 OR 0.41 MG), Method: STANDARD PLATE).

For the compound `CC(=O)OCc1ccc(N=Nc2ccccc2COC(C)=O)cc1`, the mutagenic call (Test System: AMES SALMONELLA TYPHIMURIUM, Strain/Indicator: TA100, Metabolic Activation: NONE, Method: PREINCUBATION) was “active; positive” and the mutagenic call (Test System: AMES SALMONELLA TYPHIMURIUM, Strain/Indicator: TA100, Metabolic Activation: RAT, LIVER, S-9, POLYCHLORINATED BIPHENYLS, Method: PREINCUBATION) is “inactive; negative”.

As to `O=C1CCC(=O)N1c1ccc(Cl)c(Cl)c1`, the mutagenic call runs as follows: under setting [1], “inactive; negative”; (Test System: AMES SALMONELLA TYPHIMURIUM, Strain/Indicator: TA98, Metabolic Activation: RAT, LIVER, S-9, AROCLOR 1254, Method: STANDARD PLATE) “inactive; negative”; under setting [2], “inactive; negative”; (Test System: AMES SALMONELLA TYPHIMURIUM, Strain/Indicator: TA100, Metabolic Activation: RAT, LIVER, S-9, AROCLOR 1254, Method: STANDARD PLATE) “inactive; negative”.

Consider `CCCN(CCC)c1c([N+](=O)[O-])cc(C(F)(F)F)cc1[N+](=O)[O-]`, for which the mutagenic call runs as follows: (Test System: AMES SALMONELLA TYPHIMURIUM, Strain/Indicator: TA98, Metabolic Activation: LIVER S-9) “inactive; negative”; (Test System: AMES SALMONELLA TYPHIMURIUM, Strain/Indicator: TA98, Metabolic Activation: NONE) “inactive; negative”; (Test System: AMES SALMONELLA TYPHIMURIUM, Strain/Indicator: TA100, Metabolic Activation: LIVER S-9) “inactive; negative”; (Test System: AMES SALMONELLA TYPHIMURIUM, Strain/Indicator: TA100, Metabolic Activation: NONE) “inactive; negative”; (Test System: AMES SALMONELLA TYPHIMURIUM, Strain/Indicator: TA1535, Metabolic Activation: LIVER S-9) “inactive; negative”; (Test System: AMES SALMONELLA TYPHIMURIUM, Strain/Indicator: TA1535, Metabolic Activation: NONE) “inactive; negative”. The mutagenic call was “inactive; negative” (Test System: AMES SALMONELLA TYPHIMURIUM, Strain/Indicator: TA1537, Metabolic Activation: LIVER S-9); “inactive; negative” (Test System: AMES SALMONELLA TYPHIMURIUM, Strain/Indicator: TA1537, Metabolic Activation: NONE); “inactive; negative” (Test System: AMES SALMONELLA TYPHIMURIUM, Strain/Indicator: TA1538, Metabolic Activation: LIVER S-9); “inactive; negative” (Test System: AMES SALMONELLA TYPHIMURIUM, Strain/Indicator: TA1538, Metabolic Activation: NONE); “inactive; negative” (Test System: CHINESE HAMSTER V-79 CELLS, Strain/Indicator: HGPRT, Metabolic Activation: LIVER S-9); “inactive; negative” (Test System: CHINESE HAMSTER V-79 CELLS, Strain/Indicator: HGPRT, Metabolic Activation: NONE). In addition, the mutagenic call runs as follows: (Test System: CHO-KI CELLS, Strain/Indicator: HGPRT, Metabolic Activation: LIVER S-9) “inactive; negative”; (Test System: CHO-KI CELLS, Strain/Indicator: HGPRT, Metabolic Activation: NONE) “inactive; negative”; (Test System: UDS HELA CELLS, Metabolic Activation: LIVER S-9) “inactive; negative”; (Test System: UDS HELA CELLS, Metabolic Activation: NONE) “inactive; negative”; (Test System: UDS RAT HEPATOCYTES, Metabolic Activation: NONE) “inactive; negative”.
